From patent US8846929B2, “Substituted-quinoxaline-type piperidine compounds and the uses thereof” (priority 2007, dated 2014)

These compounds were tested against human opioid receptor-like (ORL-1) (Homo sapiens (Human), UniProt P41146) (assay: In vitro ORL-1 receptor [35S]GTPγS functional assay).
Type: biochemical

Chain of human opioid receptor-like (ORL-1) (P41146 whole entry): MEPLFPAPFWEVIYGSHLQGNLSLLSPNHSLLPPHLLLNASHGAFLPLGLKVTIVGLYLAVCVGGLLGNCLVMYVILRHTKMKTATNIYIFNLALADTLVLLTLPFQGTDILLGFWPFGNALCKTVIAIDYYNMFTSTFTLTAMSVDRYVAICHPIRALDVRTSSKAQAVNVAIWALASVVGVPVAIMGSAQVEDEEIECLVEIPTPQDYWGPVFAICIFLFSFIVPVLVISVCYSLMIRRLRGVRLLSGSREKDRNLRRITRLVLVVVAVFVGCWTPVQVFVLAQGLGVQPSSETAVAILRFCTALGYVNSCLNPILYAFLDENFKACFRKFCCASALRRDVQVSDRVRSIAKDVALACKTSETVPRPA

SMILES | EC50
CN(C)c1nc2ccccc2n(C2CCN(C3CCCCCCC3)CC2)c1=O [compound 2, 1-(1-cyclooctylpiperidin-4-yl)-3-(dimethylamino)quinoxalin-2(1H)-one] | 580 ± 92 nM
CC(C)(C)OC(=O)NCCNc1nc2ccccc2n(C2CCN(C3CCCCCCC3)CC2)c1=O [compound 7, tert-butyl 2-(4-(1-cyclooctylpiperidin-4-yl)-3-oxo-3,4-dihydroquinoxalin-2-ylamino)ethylcarbamate] | 979 ± 40 nM
CC(C)(C)OC(=O)N1CCN(c2nc3ccccc3n(C3CCN(C4CCCCCCC4)CC3)c2=O)CC1 [compound 8, tert-butyl 4-(4-(1-cyclooctylpiperidin-4-yl)-3-oxo-3,4-dihydroquinoxalin-2-yl)piperazine-1-carboxylate] | 4560 ± 1120 nM
CC(=O)N1CC2CN(c3nc4ccccc4n(C4CCN(C5CCCCCCC5)CC4)c3=O)CC2C1 (stereo not shown) [compound 13, 3-(5-acetylhexahydropyrrolo[3,4-c]pyrrol-2(1H)-yl)-1-(1-cyclooctylpiperidin-4-yl)quinoxalin-2(1H)-one] | 1690 ± 166 nM
CC(C)(C)OC(=O)Nc1nc2ccccc2n(C2CCN(C3CCCCCCC3)CC2)c1=O [compound 14, tert-butyl 4-(1-cyclooctylpiperidin-4-yl)-3-oxo-3,4-dihydroquinoxalin-2-ylcarbamate] | 4650 ± 238 nM
COC(=O)C1CCN(c2nc3ccccc3n(C3CCN(C4CCCCCCC4)CC3)c2=O)CC1 [compound 16] | 3750 ± 93 nM
CC(=O)Nc1nc2ccccc2n(C2CCN(C3CCCCCCC3)CC2)c1=O [compound 17, N-(4-(1-cyclooctylpiperidin-4-yl)-3-oxo-3,4-dihydroquinoxalin-2-yl)acetamide] | 7870 ± 2230 nM
O=C1CN(c2nc3ccccc3n(C3CCN(C4CCCCCCC4)CC3)c2=O)CCN1 [compound 18, 1-(1-cyclooctylpiperidin-4-yl)-3-(3-oxopiperazin-1-yl)quinoxalin-2(1H)-one] | 1280 ± 84 nM
O=c1c(N2Cc3ccccc3C2)nc2ccccc2n1C1CCN(C2CCCCCCC2)CC1 [compound 19, 1-(1-cyclooctylpiperidin-4-yl)-3-(isoindolin-2-yl)quinoxalin-2(1H)-one] | 286 ± 30 nM
CC(C)(C)OC(=O)NC1CCN(c2nc3ccccc3n(C3CCN(C4CCCCCCC4)CC3)c2=O)CC1 [compound 21] | 1470 ± 50 nM
C=CCNc1nc2ccccc2n(C2CCN(C3CCCCCCC3)CC2)c1=O [compound 24, 3-(allylamino)-1-(1-cyclooctylpiperidin-4-yl)quinoxalin-2(1H)-one] | 611 ± 71 nM
O=c1c(NCC(O)CO)nc2ccccc2n1C1CCN(C2CCCCCCC2)CC1 (stereo not shown) [compound 25, 1-(1-cyclooctylpiperidin-4-yl)-3-(2,3-dihydroxypropylamino)quinoxalin-2(1H)-one] | 781 ± 26 nM
N=C(N)NCCNc1nc2ccccc2n(C2CCN(C3CCCCCCC3)CC2)c1=O [compound 26] | 109 ± 5.9 nM
COC(=O)[C@@H]1CCCN1c1nc2ccccc2n(C2CCN(C3CCCCCCC3)CC2)c1=O [compound 27] | 969 ± 89 nM
COC(=O)[C@@H]1C[C@@H](O)CN1c1nc2ccccc2n(C2CCN(C3CCCCCCC3)CC2)c1=O [compound 28] | 1880 ± 285 nM
NC(=O)C1CCN(c2nc3ccccc3n(C3CCN(C4CCCCCCC4)CC3)c2=O)CC1 [compound 29] | 468 ± 81 nM
CS(=O)(=O)NC1CCN(c2nc3ccccc3n(C3CCN(C4CCCCCCC4)CC3)c2=O)CC1 [compound 30] | 699 ± 19 nM
NC(=O)CNc1nc2ccccc2n(C2CCN(C3CCCCCCC3)CC2)c1=O [compound 32] | 406 ± 42 nM
NC(=O)[C@H](CO)Nc1nc2ccccc2n(C2CCN(C3CCCCCCC3)CC2)c1=O [compound 33] | 211 ± 21 nM
CC(=O)N[C@@H]1CCN(c2nc3ccccc3n(C3CCN(C4CCCCCCC4)CC3)c2=O)C1 [compound 37] | 265 ± 31 nM

SMILES | EC50
NC(=O)[C@@H]1CCCN1c1nc2ccccc2n(C2CCN(C3CCCCCCC3)CC2)c1=O [compound 42] | 543 ± 27 nM
COC(=O)c1ccc2c(c1)CN(c1nc3ccccc3n(C3CCN(C4CCCCCCC4)CC3)c1=O)CC2 [compound 44] | 392 ± 6.6 nM
COC(=O)C(CO)Nc1nc2ccccc2n(C2CCN(C3CCCCCCC3)CC2)c1=O (stereo not shown) [compound 46] | 399 ± 56 nM
NC(=O)CCNc1nc2ccccc2n(C2CCN(C3CCCCCCC3)CC2)c1=O [compound 47] | 419 ± 12.7 nM
CC(=O)N1CCC(Nc2nc3ccccc3n(C3CCN(C4CCCCCCC4)CC3)c2=O)CC1 [compound 49] | 808 ± 110 nM
O=c1c(NC[C@@H](O)CO)nc2ccccc2n1C1CCN(C2CCCCCCC2)CC1 [compound 54] | 464 ± 28 nM
O=c1c(NC[C@H](O)CO)nc2ccccc2n1C1CCN(C2CCCCCCC2)CC1 [compound 55] | 421 ± 50 nM
CCOC(=O)CNc1nc2ccccc2n(C2CCN(C3CCCCCCC3)CC2)c1=O [compound 57] | 486 ± 34 nM
NCC(O)CNc1nc2ccccc2n(C2CCN(C3CCCCCCC3)CC2)c1=O (stereo not shown) [compound 58] | 151 ± 7.9 nM
CC(=O)N[C@H]1CCN(c2nc3ccccc3n(C3CCN(C4CCCCCCC4)CC3)c2=O)C1 [compound 59] | 383 ± 63 nM
NC(=O)C1CCCN(c2nc3ccccc3n(C3CCN(C4CCCCCCC4)CC3)c2=O)C1 (stereo not shown) [compound 60] | 2140 ± 661 nM
CCOC(=O)CN(C)c1nc2ccccc2n(C2CCN(C3CCCCCCC3)CC2)c1=O [compound 61] | 1230 ± 238 nM
NC(=O)CNc1nc2ccccc2n(C2CCN(C34CC5CC(CC(C5)C3)C4)CC2)c1=O [compound 64] | 457 ± 90 nM
CN(CC(O)CO)c1nc2ccccc2n(C2CCN(C3CCCCCCC3)CC2)c1=O (stereo not shown) [compound 65] | 348 ± 22 nM
CS(=O)(=O)N[C@@H]1CCN(c2nc3ccccc3n(C3CCN(C4CCCCCCC4)CC3)c2=O)C1 [compound 66] | 108 ± 15.1 nM
O=c1c(N2CC[C@H](O)C2)nc2ccccc2n1C1CCN(C2CCCCCCC2)CC1 [compound 68] | 478 ± 6.4 nM
CCOC(=O)c1nc2ccccc2n(C2CCN(C3CCCCCCC3)CC2)c1=O [compound 70, ethyl 4-(1-cyclooctylpiperidin-4-yl)-3-oxo-3,4-dihydroquinoxaline-2-carboxylate] | 788 ± 44 nM
O=C(c1nc2ccccc2n(C2CCN(C3CCCCCCC3)CC2)c1=O)N1CC2CNCC2C1 (stereo not shown) [compound 73, 1-(1-cyclooctylpiperidin-4-yl)-3-(octahydropyrrolo[3,4-c]pyrrole-2-carbonyl)quinoxalin-2(1H)-one] | 377 ± 115 nM
CNC(=O)c1nc2ccccc2n(C2CCN(C3CCCCCCC3)CC2)c1=O [compound 78] | 363 ± 20 nM
O=C(NCC(O)CO)c1nc2ccccc2n(C2CCN(C3CCCCCCC3)CC2)c1=O (stereo not shown) [compound 79] | 703 ± 39 nM

SMILES | EC50
O=C(Nc1ccc(=O)[nH]c1)c1nc2ccccc2n(C2CCN(C3CCCCCCC3)CC2)c1=O [compound 82] | 181 ± 9.8 nM
CONC(=O)c1nc2ccccc2n(C2CCN(C3CCCCCCC3)CC2)c1=O [compound 83] | 558 ± 77 nM
O=C(NOCc1ccccc1)c1nc2ccccc2n(C2CCN(C3CCCCCCC3)CC2)c1=O [compound 84] | 182 ± 22 nM
N#Cc1nc2ccccc2n(C2CCN(C3CCCCCCC3)CC2)c1=O [compound 88] | 201 ± 27 nM
O=c1c(NC[C@@H](O)CO)nc2ccccc2n1C1CCN(C23CC4CC(CC(C4)C2)C3)CC1 [compound 89] | 806 ± 85 nM
O=c1c(N2CC[C@@H](O)C2)nc2ccccc2n1C1CCN(C2CCCCCCC2)CC1 [compound 92] | 510 ± 100 nM
O=C1CCN(c2nc3ccccc3n(C3CCN(C4CCCCCCC4)CC3)c2=O)N1 [compound 119, 1-(1-cyclooctylpiperidin-4-yl)-3-(3-oxopyrazolidin-1-yl)quinoxalin-2(1H)-one] | 3660 ± 171 nM
CONC(=O)c1nc2ccccc2n([C@H]2C[C@H]3CC[C@@H](C2)N3C2CCCCCCC2)c1=O [compound 121] | 265 ± 27 nM
O=C(O)c1nc2ccc(F)cc2n([C@H]2C[C@H]3CC[C@@H](C2)N3C2CCCCCCC2)c1=O [compound 133] | 473 ± 27 nM
CC(C)CCC(C)N1[C@@H]2CCC[C@H]1C[C@@H](n1c(=O)c(C(=O)O)nc3ccccc31)C2 (stereo partly shown) [compound 303] | 298 ± 23 nM
CC(C)CC(C)N1[C@@H]2CCC[C@H]1C[C@@H](n1c(=O)c(C(=O)O)nc3ccccc31)C2 (stereo partly shown) [compound 304] | 150 ± 6 nM
O=C(O)c1cccc(CNc2nc3ccccc3n([C@H]3C[C@H]4CC[C@@H](C3)N4C3CCCCCCC3)c2=O)c1 [compound 305] | 394 ± 53 nM
O=C(O)C1CCCN1C(=O)c1nc2ccccc2n([C@H]2C[C@H]3CC[C@@H](C2)N3C2CCCCCCC2)c1=O (stereo partly drawn) [compound 306, 1-(4-((endo)-8-cyclooctyl-8-azabicyclo[3.2.1]octan-3-yl)-3-oxo-3,4-dihydroquinoxaline-2-carbonyl)pyrrolidine-2-carboxylic acid] | 548 ± 57 nM
CN(CC(=O)O)C(=O)c1nc2ccccc2n([C@H]2C[C@H]3CC[C@@H](C2)N3C2CCCCCCC2)c1=O [compound 307, 2-(4-((endo)-8-cyclooctyl-8-azabicyclo[3.2.1]octan-3-yl)-N-methyl-3-oxo-3,4-dihydroquinoxaline-2-carboxamido)acetic acid] | 400 ± 72 nM
CSCCC(NC(=O)c1nc2ccccc2n([C@H]2C[C@H]3CC[C@@H](C2)N3C2CCCCCCC2)c1=O)C(=O)O (stereo partly drawn) [compound 309, 2-(4-((endo)-8-cyclooctyl-8-azabicyclo[3.2.1]octan-3-yl)-3-oxo-3,4-dihydroquinoxaline-2-carboxamido)-4-(methylthio)butanoic acid] | 659 ± 155 nM
O=C(O)CC(NC(=O)c1nc2ccccc2n([C@H]2C[C@H]3CC[C@@H](C2)N3C2CCCCCCC2)c1=O)C(=O)O (stereo partly drawn) [compound 310, 2-(4-((endo)-8-cyclooctyl-8-azabicyclo[3.2.1]octan-3-yl)-3-oxo-3,4-dihydroquinoxaline-2-carboxamido)succinic acid] | 419 ± 62 nM
CC(NC(=O)c1nc2ccccc2n([C@H]2C[C@H]3CC[C@@H](C2)N3C2CCCCCCC2)c1=O)C(=O)O (stereo partly drawn) [compound 312, 2-(4-((endo)-8-cyclooctyl-8-azabicyclo[3.2.1]octan-3-yl)-3-oxo-3,4-dihydroquinoxaline-2-carboxamido)propanoic acid] | 138 ± 8.1 nM
O=C(O)c1ccc(CNC(=O)c2nc3ccccc3n([C@H]3C[C@H]4CC[C@@H](C3)N4C3CCCCCCC3)c2=O)cc1 [compound 314] | 453 ± 66 nM
